{"source": "PubChem BioAssay AID1963984", "about": "(Molecular Pharmacology Branch, DTP, NCI, 2024);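 further: spheroids exposed to agents for seven days before readout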;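 on viability, T/C: percent viability relative to DMSO vehicle control taken as 100%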", "test_system": "233499-124-R-J3-PDC spheroids with HUVEC/MSC, viability", "experiment": "Anticancer human tumor 233499-124-R-J3-PDC patient-derived colon adenocarcinoma cell line growth inhibition [PI3K]", "details": "for IC50: curve of first compound; for viability, T/C: stronger effect = lower value", "method_in_brief": "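Spheroid viability read-out. Co-cultures contained the tumor line plus HUVEC and human MSCs. Each agent was paired with a PI3K inhibitor (inavolisib, alpelisib, duvelisib, copanlisib) across half-log dilutions starting at clinical Cmax, or at 10 microM when Cmax was unknown.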", "key": {"[1]": {"details": "second compound 0.00316 µM, first compound 0.0316 µM"}, "[2]": {"details": "second compound 0.00316 µM, first compound 0.1 µM"}, "[3]": {"details": "second compound 0.01 µM, first compound 0.0316 µM"}, "[4]": {"details": "second compound 0.01 µM, first compound 0.1 µM"}, "[5]": {"details": "second compound 0.0316 µM, first compound 0.0316 µM"}, "[6]": {"details": "second compound 0.0316 µM, first compound 0.1 µM"}, "[7]": {"details": "second compound 0.1 µM, first compound 0.0316 µM"}, "[8]": {"details": "second compound 0.1 µM, first compound 0.1 µM"}, "[9]": {"details": "second compound 0.316 µM, first compound 0.0316 µM"}, "[10]": {"details": "second compound 0.316 µM, first compound 0.1 µM"}, "[11]": {"details": "second compound 1 µM, first compound 0.0316 µM"}, "[12]": {"details": "second compound 1 µM, first compound 0.1 µM"}}, "data": [{"smiles": "Cn1ncnc1[C@H]1c2n[nH]c(=O)c3cc(F)cc(c23)N[C@@H]1c1ccc(F)cc1", "note": "+ COc1c(OCCCN2CCOCC2)ccc2c3n(c(=NC(=O)c4cnc(N)nc4)nc12)CCN3", "values": [{"measurement": "IC50", "setting": "second compound 0.00316 µM", "value": "> 100", "unit": "nM"}, {"measurement": "IC50", "setting": "second compound 0.01 µM", "value": "> 100", "unit": "nM"}, {"measurement": "IC50", "setting": "second compound 0.0316 µM", "value": "> 100", "unit": "nM"}, {"measurement": "IC50", "setting": "second compound 0.1 µM", "value": "> 100", "unit": "nM"}, {"measurement": "IC50", "setting": "second compound 0.316 µM", "value": "< 0.316", "unit": "nM"}, {"measurement": "IC50", "setting": "second compound 1 µM", "value": "< 0.316", "unit": "nM"}, {"measurement": "viability, T/C", "setting": "second compound 0.00316 µM, first compound 0.000316 µM", "value": 97.7, "unit": "%"}, {"measurement": "viability, T/C", "setting": "second compound 0.00316 µM, first compound 0.001 µM", "value": 111, "unit": "%"}, {"measurement": "viability, T/C", "setting": "second compound 0.00316 µM, first compound 0.00316 µM", "value": 97.2, "unit": "%"}, {"measurement": "viability, T/C", "setting": "second compound 0.00316 µM, first compound 0.01 µM", "value": 111, "unit": "%"}, {"measurement": "viability, T/C", "setting": "[1]", "value": 90.2, "unit": "%"}, {"measurement": "viability, T/C", "setting": "[2]", "value": 85.9, "unit": "%"}, {"measurement": "viability, T/C", "setting": "second compound 0.01 µM, first compound 0.000316 µM", "value": 90.1, "unit": "%"}, {"measurement": "viability, T/C", "setting": "second compound 0.01 µM, first compound 0.001 µM", "value": 92.3, "unit": "%"}, {"measurement": "viability, T/C", "setting": "second compound 0.01 µM, first compound 0.00316 µM", "value": 90, "unit": "%"}, {"measurement": "viability, T/C", "setting": "second compound 0.01 µM, first compound 0.01 µM", "value": 78.2, "unit": "%"}, {"measurement": "viability, T/C", "setting": "[3]", "value": 90.9, "unit": "%"}, {"measurement": "viability, T/C", "setting": "[4]", "value": 66.9, "unit": "%"}, {"measurement": "viability, T/C", "setting": "second compound 0.0316 µM, first compound 0.000316 µM", "value": 94, "unit": "%"}, {"measurement": "viability, T/C", "setting": "second compound 0.0316 µM, first compound 0.001 µM", "value": 81.4, "unit": "%"}, {"measurement": "viability, T/C", "setting": "second compound 0.0316 µM, first compound 0.00316 µM", "value": 89.2, "unit": "%"}, {"measurement": "viability, T/C", "setting": "second compound 0.0316 µM, first compound 0.01 µM", "value": 83.9, "unit": "%"}, {"measurement": "viability, T/C", "setting": "[5]", "value": 80.9, "unit": "%"}, {"measurement": "viability, T/C", "setting": "[6]", "value": 79.6, "unit": "%"}, {"measurement": "viability, T/C", "setting": "second compound 0.1 µM, first compound 0.000316 µM", "value": 81.1, "unit": "%"}, {"measurement": "viability, T/C", "setting": "second compound 0.1 µM, first compound 0.001 µM", "value": 75.3, "unit": "%"}, {"measurement": "viability, T/C", "setting": "second compound 0.1 µM, first compound 0.00316 µM", "value": 75.9, "unit": "%"}, {"measurement": "viability, T/C", "setting": "second compound 0.1 µM, first compound 0.01 µM", "value": 76.7, "unit": "%"}, {"measurement": "viability, T/C", "setting": "[7]", "value": 65.9, "unit": "%"}, {"measurement": "viability, T/C", "setting": "[8]", "value": 66.7, "unit": "%"}, {"measurement": "viability, T/C", "setting": "second compound 0.316 µM, first compound 0.000316 µM", "value": 34.7, "unit": "%"}, {"measurement": "viability, T/C", "setting": "second compound 0.316 µM, first compound 0.001 µM", "value": 27.6, "unit": "%"}, {"measurement": "viability, T/C", "setting": "second compound 0.316 µM, first compound 0.00316 µM", "value": 36.6, "unit": "%"}, {"measurement": "viability, T/C", "setting": "second compound 0.316 µM, first compound 0.01 µM", "value": 33.9, "unit": "%"}, {"measurement": "viability, T/C", "setting": "[9]", "value": 28.4, "unit": "%"}, {"measurement": "viability, T/C", "setting": "[10]", "value": 35, "unit": "%"}, {"measurement": "viability, T/C", "setting": "second compound 1 µM, first compound 0.000316 µM", "value": 4.32, "unit": "%"}, {"measurement": "viability, T/C", "setting": "second compound 1 µM, first compound 0.001 µM", "value": 8.27, "unit": "%"}, {"measurement": "viability, T/C", "setting": "second compound 1 µM, first compound 0.00316 µM", "value": 5.26, "unit": "%"}, {"measurement": "viability, T/C", "setting": "second compound 1 µM, first compound 0.01 µM", "value": 9.55, "unit": "%"}, {"measurement": "viability, T/C", "setting": "[11]", "value": 11.9, "unit": "%"}, {"measurement": "viability, T/C", "setting": "[12]", "value": 11.5, "unit": "%"}]}, {"smiles": "Cn1ncc(Cl)c1-c1cc(C(=O)NC(CN)Cc2cccc(F)c2)sc1Cl", "note": "(centres undefined) + COc1c(OCCCN2CCOCC2)ccc2c3n(c(=NC(=O)c4cnc(N)nc4)nc12)CCN3", "values": [{"measurement": "IC50", "setting": "second compound 0.00316 µM", "value": 4100, "unit": "nM"}, {"measurement": "IC50", "setting": "second compound 0.01 µM", "value": 2780, "unit": "nM"}, {"measurement": "IC50", "setting": "second compound 0.0316 µM", "value": 1640, "unit": "nM"}, {"measurement": "IC50", "setting": "second compound 0.1 µM", "value": 516, "unit": "nM"}, {"measurement": "IC50", "setting": "second compound 0.316 µM", "value": "< 31.6", "unit": "nM"}, {"measurement": "IC50", "setting": "second compound 1 µM", "value": "< 31.6", "unit": "nM"}, {"measurement": "viability, T/C", "setting": "[1]", "value": 70.1, "unit": "%"}, {"measurement": "viability, T/C", "setting": "[2]", "value": 88.1, "unit": "%"}, {"measurement": "viability, T/C", "setting": "second compound 0.00316 µM, first compound 0.316 µM", "value": 83.2, "unit": "%"}, {"measurement": "viability, T/C", "setting": "second compound 0.00316 µM, first compound 1 µM", "value": 83.7, "unit": "%"}, {"measurement": "viability, T/C", "setting": "second compound 0.00316 µM, first compound 3.16 µM", "value": 58.9, "unit": "%"}, {"measurement": "viability, T/C", "setting": "second compound 0.00316 µM, first compound 10 µM", "value": 19.6, "unit": "%"}, {"measurement": "viability, T/C", "setting": "[3]", "value": 81.6, "unit": "%"}, {"measurement": "viability, T/C", "setting": "[4]", "value": 97.4, "unit": "%"}, {"measurement": "viability, T/C", "setting": "second compound 0.01 µM, first compound 0.316 µM", "value": 98.8, "unit": "%"}, {"measurement": "viability, T/C", "setting": "second compound 0.01 µM, first compound 1 µM", "value": 77.8, "unit": "%"}, {"measurement": "viability, T/C", "setting": "second compound 0.01 µM, first compound 3.16 µM", "value": 46.8, "unit": "%"}, {"measurement": "viability, T/C", "setting": "second compound 0.01 µM, first compound 10 µM", "value": 46.1, "unit": "%"}, {"measurement": "viability, T/C", "setting": "[5]", "value": 81.9, "unit": "%"}, {"measurement": "viability, T/C", "setting": "[6]", "value": 80.1, "unit": "%"}, {"measurement": "viability, T/C", "setting": "second compound 0.0316 µM, first compound 0.316 µM", "value": 78.8, "unit": "%"}, {"measurement": "viability, T/C", "setting": "second compound 0.0316 µM, first compound 1 µM", "value": 59.6, "unit": "%"}, {"measurement": "viability, T/C", "setting": "second compound 0.0316 µM, first compound 3.16 µM", "value": 36.3, "unit": "%"}, {"measurement": "viability, T/C", "setting": "second compound 0.0316 µM, first compound 10 µM", "value": 20.5, "unit": "%"}, {"measurement": "viability, T/C", "setting": "[7]", "value": 61.7, "unit": "%"}, {"measurement": "viability, T/C", "setting": "[8]", "value": 62.8, "unit": "%"}, {"measurement": "viability, T/C", "setting": "second compound 0.1 µM, first compound 0.316 µM", "value": 56.9, "unit": "%"}, {"measurement": "viability, T/C", "setting": "second compound 0.1 µM, first compound 1 µM", "value": 37.7, "unit": "%"}, {"measurement": "viability, T/C", "setting": "second compound 0.1 µM, first compound 3.16 µM", "value": 36.7, "unit": "%"}, {"measurement": "viability, T/C", "setting": "second compound 0.1 µM, first compound 10 µM", "value": 16.1, "unit": "%"}, {"measurement": "viability, T/C", "setting": "[9]", "value": 21.4, "unit": "%"}, {"measurement": "viability, T/C", "setting": "[10]", "value": 42.5, "unit": "%"}, {"measurement": "viability, T/C", "setting": "second compound 0.316 µM, first compound 0.316 µM", "value": 19.2, "unit": "%"}, {"measurement": "viability, T/C", "setting": "second compound 0.316 µM, first compound 1 µM", "value": 34.3, "unit": "%"}, {"measurement": "viability, T/C", "setting": "second compound 0.316 µM, first compound 3.16 µM", "value": 31.9, "unit": "%"}, {"measurement": "viability, T/C", "setting": "second compound 0.316 µM, first compound 10 µM", "value": 11.3, "unit": "%"}, {"measurement": "viability, T/C", "setting": "[11]", "value": 8.63, "unit": "%"}, {"measurement": "viability, T/C", "setting": "[12]", "value": 9.16, "unit": "%"}, {"measurement": "viability, T/C", "setting": "second compound 1 µM, first compound 0.316 µM", "value": 15.4, "unit": "%"}, {"measurement": "viability, T/C", "setting": "second compound 1 µM, first compound 1 µM", "value": 10.9, "unit": "%"}, {"measurement": "viability, T/C", "setting": "second compound 1 µM, first compound 3.16 µM", "value": 7.03, "unit": "%"}, {"measurement": "viability, T/C", "setting": "second compound 1 µM, first compound 10 µM", "value": 1.23, "unit": "%"}]}]}
